In one assay the target is T1, JAK2 (Homo sapiens, UniProt O60674).
T1 construct: host or cells: baculovirus expression system
The experiment in a line: Recombinant Human JAK2 Kinase Assay (TRF). It is filed as biochemical. The note with it: read-out: JAK2 Potency. An outline of the steps:
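Kinase activity of baculovirus-expressed JAK2 is followed on a surface-immobilised biotinylated peptide, with the reaction run for 20 min at room temperature in buffer containing 0.2 μM ATP and manganese. Phosphorylation is read with Eu-N1 PY100 antibody.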

Another assay deals with T2, ALK (Homo sapiens, UniProt Q9UM73).
T2 construct: host or cells: baculovirus expression system
T2 sequence (Q9UM73 19-1620): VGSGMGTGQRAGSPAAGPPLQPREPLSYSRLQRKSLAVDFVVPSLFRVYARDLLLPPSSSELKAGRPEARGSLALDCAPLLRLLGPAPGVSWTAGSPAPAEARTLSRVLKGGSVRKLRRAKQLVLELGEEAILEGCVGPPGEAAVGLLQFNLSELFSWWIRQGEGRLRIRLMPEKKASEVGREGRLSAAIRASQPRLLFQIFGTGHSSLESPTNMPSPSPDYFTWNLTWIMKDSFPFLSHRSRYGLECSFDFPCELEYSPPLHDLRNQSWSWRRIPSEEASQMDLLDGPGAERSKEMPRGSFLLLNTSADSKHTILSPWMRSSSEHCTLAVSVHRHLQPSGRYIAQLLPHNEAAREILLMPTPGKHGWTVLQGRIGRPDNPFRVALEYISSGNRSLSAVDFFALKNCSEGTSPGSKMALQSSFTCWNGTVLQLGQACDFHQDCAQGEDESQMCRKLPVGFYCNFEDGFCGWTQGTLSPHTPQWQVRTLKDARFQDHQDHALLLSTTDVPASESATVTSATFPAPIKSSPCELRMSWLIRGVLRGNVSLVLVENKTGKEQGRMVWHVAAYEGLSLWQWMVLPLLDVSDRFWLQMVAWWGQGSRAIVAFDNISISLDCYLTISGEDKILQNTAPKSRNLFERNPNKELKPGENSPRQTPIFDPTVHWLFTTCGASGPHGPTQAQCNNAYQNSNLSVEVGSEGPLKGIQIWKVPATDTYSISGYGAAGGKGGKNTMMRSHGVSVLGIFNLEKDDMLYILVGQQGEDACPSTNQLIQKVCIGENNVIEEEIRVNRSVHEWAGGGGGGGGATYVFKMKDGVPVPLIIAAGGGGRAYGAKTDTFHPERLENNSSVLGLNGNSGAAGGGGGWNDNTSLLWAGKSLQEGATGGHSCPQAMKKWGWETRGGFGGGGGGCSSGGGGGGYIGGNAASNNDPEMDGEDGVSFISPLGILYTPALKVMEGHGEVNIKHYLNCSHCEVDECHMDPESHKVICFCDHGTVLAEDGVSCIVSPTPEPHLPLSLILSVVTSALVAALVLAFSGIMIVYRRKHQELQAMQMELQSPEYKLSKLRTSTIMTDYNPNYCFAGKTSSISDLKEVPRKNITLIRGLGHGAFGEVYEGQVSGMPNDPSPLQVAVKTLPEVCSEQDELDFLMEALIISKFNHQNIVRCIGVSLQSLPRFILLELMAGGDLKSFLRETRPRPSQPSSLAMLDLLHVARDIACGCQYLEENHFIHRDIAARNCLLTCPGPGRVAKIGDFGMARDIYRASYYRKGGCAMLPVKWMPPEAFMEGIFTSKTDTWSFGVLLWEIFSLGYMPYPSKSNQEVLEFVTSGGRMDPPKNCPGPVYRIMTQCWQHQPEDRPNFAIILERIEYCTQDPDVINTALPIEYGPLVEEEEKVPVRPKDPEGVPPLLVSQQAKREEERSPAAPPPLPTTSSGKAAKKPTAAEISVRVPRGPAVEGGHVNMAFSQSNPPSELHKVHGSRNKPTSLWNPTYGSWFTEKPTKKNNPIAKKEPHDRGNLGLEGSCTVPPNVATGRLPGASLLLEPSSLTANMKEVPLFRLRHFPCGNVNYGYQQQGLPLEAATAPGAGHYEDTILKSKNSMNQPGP
Nature of the assay: ALK Kinase Assay (ELISA/TRF, PLC-γ substrate). It is filed as biochemical. The note with it: read-out: ALK Potency. The procedure, abridged: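 PLC-γ substrate coated at 10 μg/mL in TBS; reaction started with 30 ng/ml ALK, run 15 min at 37° C. Phosphoproduct detected by TRF with Eu-N1-labeled PT66 anti-phosphotyrosine antibody. IC50 from sigmoidal variable-slope fit of percent inhibition versus log concentration.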

Where [1] appears, read: JAK2 kinase inhibition, 0.2 μM ATP.
Where [2] appears, read: ALK kinase inhibition, 1 μM ATP.

Where two headings read alike, the source gives them in different places.

T1 sequence (O60674 whole entry): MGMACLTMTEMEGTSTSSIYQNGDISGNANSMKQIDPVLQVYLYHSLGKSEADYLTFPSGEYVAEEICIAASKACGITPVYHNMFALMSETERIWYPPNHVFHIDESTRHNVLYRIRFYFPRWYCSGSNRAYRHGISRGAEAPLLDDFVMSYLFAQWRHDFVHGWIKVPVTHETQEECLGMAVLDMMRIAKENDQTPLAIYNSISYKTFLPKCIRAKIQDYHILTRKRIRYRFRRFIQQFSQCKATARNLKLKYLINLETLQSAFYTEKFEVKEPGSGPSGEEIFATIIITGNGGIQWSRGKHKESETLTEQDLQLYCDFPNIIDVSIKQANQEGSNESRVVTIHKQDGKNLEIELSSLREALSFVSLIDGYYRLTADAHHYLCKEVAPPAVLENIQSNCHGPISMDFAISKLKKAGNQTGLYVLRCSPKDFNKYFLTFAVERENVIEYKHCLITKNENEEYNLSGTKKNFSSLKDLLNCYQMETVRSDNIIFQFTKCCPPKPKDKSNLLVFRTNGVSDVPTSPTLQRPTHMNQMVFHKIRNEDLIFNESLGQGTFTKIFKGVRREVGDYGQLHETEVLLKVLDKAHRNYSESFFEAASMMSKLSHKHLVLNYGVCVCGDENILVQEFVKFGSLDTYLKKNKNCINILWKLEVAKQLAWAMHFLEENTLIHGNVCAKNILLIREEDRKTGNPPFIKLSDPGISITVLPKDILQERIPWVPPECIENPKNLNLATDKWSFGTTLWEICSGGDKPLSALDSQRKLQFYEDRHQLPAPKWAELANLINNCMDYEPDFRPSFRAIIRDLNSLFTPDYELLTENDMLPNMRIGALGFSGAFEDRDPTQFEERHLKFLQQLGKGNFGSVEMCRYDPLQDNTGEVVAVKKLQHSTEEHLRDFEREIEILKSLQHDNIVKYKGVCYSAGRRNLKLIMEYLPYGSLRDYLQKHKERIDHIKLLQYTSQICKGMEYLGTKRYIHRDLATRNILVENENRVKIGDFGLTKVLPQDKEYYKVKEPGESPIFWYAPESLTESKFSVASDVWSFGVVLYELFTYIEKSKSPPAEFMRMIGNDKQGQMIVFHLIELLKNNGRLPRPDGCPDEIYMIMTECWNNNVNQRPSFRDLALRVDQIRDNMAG

Regarding `COc1cc(N2CCC(N3CCOCC3)CC2)ccc1Nc1ncc2ccc(-c3ccccc3C(C)=O)n2n1` [Example 1454, 1-(2-{2-[2-Methoxy-4-(4-morpholin-4-yl-piperidin-1-yl)-phenylamino]-pyrrolo[2,1-f][1,2,4]triazin-7-yl}-phenyl)-ethanone], the results for the IC50 on JAK2 (JAK2 Kinase Inhibition) and on ALK (ALK Kinase Inhibition) were 100 to 1000 nM and under 100 nM, respectively.

With `O=S(=O)(NCCO)c1cccc(-c2ccc3cnc(Nc4ccc(N5CCOCC5)cc4)nn23)c1` [Example 368, N-(2-Hydroxy-ethyl)-3-[2-(4-morpholin-4-yl-phenylamino)-pyrrolo[2,1-f][1,2,4]triazin-7-yl]-benzenesulfonamide], the IC50 on JAK2 (JAK2 Kinase Inhibition) was under 100 nM; at ALK (ALK Kinase Inhibition), 100 to 1000 nM.

Take `CN1CCN(c2ccc(Nc3ncc4ccc(-c5cccc(S(=O)(=O)NCCO)c5)n4n3)cc2)CC1` [Example 369, N-(2-Hydroxy-ethyl)-3-{2-[4-(4-methyl-piperazin-1-yl)-phenylamino]-pyrrolo[2,1-f][1,2,4]triazin-7-yl}-benzenesulfonamide]: the IC50 at JAK2 (JAK2 Kinase Inhibition) is under 100 nM; at ALK (ALK Kinase Inhibition), 100 to 1000 nM.

For the compound `CC(=O)N1CCCC(C)(C)c2ccc(Nc3ncc4ccc(-c5ccccc5N(C)S(C)(=O)=O)n4n3)cc21` [Example 1366, N-{2-[2-(1-Acetyl-5,5-dimethyl-2,3,4,5-tetrahydro-1H-benzo[b]azepin-8-ylamino)-pyrrolo[2,1-f][1,2,4]triazin-7-yl]-phenyl}-N-methyl-methanesulfonamide], the IC50 was under 100 nM on JAK2 (JAK2 Kinase Inhibition) and 100 to 1000 nM on ALK (ALK Kinase Inhibition).

With `CS(=O)(=O)c1cccc(-c2ccc3cnc(N4CCC(Oc5cccc(N)c5)CC4)nn23)c1` [Example 563, 3-{1-[7-(3-Methanesulfonyl-phenyl)-pyrrolo[2,1-f][1,2,4]triazin-2-yl]-piperdin-4-yloxy}-phenylamine], the IC50 at JAK2 (setting [1]) was 1000 to 10000 nM; at ALK (setting [2]), over 10000 nM.

As for `CC(C)(C)NS(=O)(=O)c1cccc(-c2ccc3cnc(Nc4ccc5nn(CCN6CCOCC6)cc5c4)nn23)c1` [Example 1345, N-tert-Butyl-3-{2-[2-(2-morpholin-4-yl-ethyl)-2H-indazol-5-ylamino]-pyrrolo[2,1-f][1,2,4]triazin-7-yl}-benzenesulfonamide], the IC50 on JAK2 (setting [1]) was under 100 nM; at ALK (setting [2]) it was 100 to 1000 nM.

`COc1ccccc1-c1ccc2cnc(Nc3ccc4c(c3)N(C)CCO4)nn12` [Example 645, [7-(2-Methoxy-phenyl)-pyrrolo[2,1-f][1,2,4]triazin-2-yl]-(4-methyl-3,4-dihydro-2H-benzo[1,4]oxazin-6-yl)-amine]: the figures for the IC50 at JAK2 (setting [1]) and at ALK (setting [2]) were under 100 nM and 100 to 1000 nM, respectively.

“3-(2-{2-[3-(2-Methoxy-1-methyl-ethoxy)-phenylamino]-pyrrolo[2,1-f][1,2,4]triazin-7-yl}-pyrrol-1-yl)-propionitrile [Example 1295]”: the figures for the IC50 at JAK2 (setting [1]) and at ALK (setting [2]) were 100 to 1000 nM and over 10000 nM, respectively.

With `c1ccc2ncc(-c3ccc4cnc(Nc5ccc(N6CCOCC6)cc5)nn34)cc2c1` [Example 1033, (4-Morpholin-4-yl-phenyl)-(7-quinolin-3-yl-pyrrolo[2,1-f][1,2,4]triazin-2-yl)-amine], the IC50 on JAK2 (setting [1]) is under 100 nM; at ALK (setting [2]), 1000 to 10000 nM.

Take `Cc1nc2cc(Nc3ncc4ccc(-c5cccc(S(=O)(=O)NC(C)(C)C)c5)n4n3)ccc2s1` [Example 574, N-tert-Butyl-3-[2-(2-methyl-benzothiazol-5-ylamino)-pyrrolo[2,1-f][1,2,4]triazin-7-yl]-benzenesulfonamide]: the IC50 on JAK2 (setting [1]) was under 100 nM; at ALK (setting [2]), 1000 to 10000 nM.

For the compound `COCCN1CCc2cc(Nc3ncc4ccc(-c5ccccc5OC)n4n3)c(OC)cc2CC1` [Example 48, [8-Methoxy-3-(2-methoxy-ethyl)-2,3,4,5-tetrahydro-1H-benzo[d]azepin-7-yl]-[7-(2-methoxy-phenyl)-pyrrolo[2,1-f][1,2,4]triazin-2-yl]-amine], the IC50 at JAK2 (JAK2 Kinase Inhibition) was 100 to 1000 nM; on ALK (ALK Kinase Inhibition), under 100 nM.

On to `CN1C(=O)COc2cc(Nc3ncc4ccc(-c5cccnc5)n4n3)ccc21` [Example 649, 4-Methyl-7-(7-pyridin-3-yl-pyrrolo[2,1-f][1,2,4]triazin-2-ylamino)-4H-benzo[1,4]oxazin-3-one], for which the IC50 at JAK2 (setting [1]) is under 100 nM; at ALK (setting [2]), 1000 to 10000 nM.

Consider `COc1cc(N2CCC(N3CCOCC3)CC2)ccc1Nc1ncc2ccc(-c3ccccc3F)n2n1` [Example 1473, [7-(2-Fluoro-phenyl)-pyrrolo[2,1-f][1,2,4]triazin-2-yl]-[2-methoxy-4-(4-morpholin-4-yl-piperidin-1-yl)-phenyl]-amine], for which the IC50 on JAK2 (JAK2 Kinase Inhibition) and at ALK (ALK Kinase Inhibition) was under 100 nM throughout.

On to `CN1CCN(C(=O)N2CCC(c3ccc(Nc4ncc5ccc(-c6ccccc6N(C)S(C)(=O)=O)n5n4)cc3)CC2)CC1` [Example 503, N-Methyl-N-[2-(2-{4-[1-(4-methyl-piperazine-1-carbonyl)-piperidin-4-yl]-phenylamino}-pyrrolo[2,1-f][1,2,4]triazin-7-yl)-phenyl]-methanesulfonamide], for which the IC50 on JAK2 (setting [1]) and at ALK (setting [2]) was under 100 nM in each case.

Regarding `CN1CCN(c2ccc(Nc3ncc4ccc(-c5cccc(NS(C)(=O)=O)c5)n4n3)nc2)CC1` [Example 1194, N-(3-{2-[5-(4-Methyl-piperazin-1-yl)-pyridin-2-ylamino]-pyrrolo[2,1-f][1,2,4]triazin-7-yl}-phenyl)-methanesulfonamide], the IC50 was under 100 nM on JAK2 (setting [1]) and 100 to 1000 nM on ALK (setting [2]).

For `COc1ccccc1-c1ccc2cnc(Nc3cnn(C4CCNCC4)c3)nn12` [Example 716, 4-{4-[7-(2-Methoxy-phenyl)-pyrrolo[2,1-f][1,2,4]triazin-2-ylamino]-pyrazol-1-yl}-piperidine], the IC50 at JAK2 (setting [1]) and on ALK (setting [2]) was under 100 nM each time.

Regarding `c1cncc(-c2ccc3cnc(Nc4ccc(OCCN5CCOCC5)cc4)nn23)c1` [Example 125, [4-(2-Morpholin-4-yl-ethoxy)-phenyl]-(7-pyridin-3-yl-pyrrolo[2,1-f][1,2,4]triazin-2-yl)-amine], the IC50 was under 100 nM at JAK2 (JAK2 Kinase Inhibition) and 100 to 1000 nM on ALK (ALK Kinase Inhibition).

`CN(c1ccccc1-c1cc(Cl)c2cnc(Nc3ccc(C4CCN(CC(N)=O)CC4)cc3)nn12)S(C)(=O)=O` [Example 1553, 2-[4-(4-{5-Chloro-7-[2-(methanesulfonyl-methyl-amino)-phenyl]-pyrrolo[2,1-f][1,2,4]triazin-2-ylamino}-phenyl)-piperidin-1-yl]-acetamide]: the IC50 at JAK2 (JAK2 Kinase Inhibition) and on ALK (ALK Kinase Inhibition) was under 100 nM each time.

With `COCc1cccc(-c2ccc3cnc(Nc4ccc(N5CCN(C)CC5)cc4)nn23)c1` [Example 1503, [7-(3-Methoxymethyl-phenyl)-pyrrolo[2,1-f][1,2,4]triazin-2-yl]-[4-(4-methyl-piperazin-1-yl)-phenyl]-amine], the IC50 at JAK2 (JAK2 Kinase Inhibition) is under 100 nM; on ALK (ALK Kinase Inhibition) it was 100 to 1000 nM.

In the case of `CC(C)(C)NS(=O)(=O)c1cccc(-c2ccc3cnc(Nc4ccc5ncsc5c4)nn23)c1` [Example 573, 3-[2-(Benzothiazol-6-ylamino)-pyrrolo[2,1-f][1,2,4]triazin-7-yl]-N-tert-butyl-benzenesulfonamide], the IC50 was under 100 nM at JAK2 (setting [1]) and over 10000 nM on ALK (setting [2]).

For the compound `Cc1cc(Nc2ncc3ccc(-c4cccc(Cl)c4)n3n2)ccc1N1CCN(C)CC1` [Example 69, [7-(3-Chloro-phenyl)-pyrrolo[2,1-f][1,2,4]triazin-2-yl]-[3-methyl-4-(4-methyl-piperazin-1-yl)-phenyl]-amine], the IC50 at JAK2 (JAK2 Kinase Inhibition) and on ALK (ALK Kinase Inhibition) was under 100 nM each time.

Turning to `CN1CCN(c2ccc(Nc3ncc4ccc(-c5ccc(S(C)(=O)=O)cc5)n4n3)cc2)CC1` [Example 59, [7-(4-Methanesulfonyl-phenyl)-pyrrolo[2,1-f][1,2,4]triazin-2-yl]-[4-(4-methyl-piperazin-1-yl)-phenyl]-amine], the IC50 at JAK2 (JAK2 Kinase Inhibition) is under 100 nM; at ALK (ALK Kinase Inhibition), 100 to 1000 nM.

Consider `CN1CCN(c2cccc(Nc3ncc4ccc(-c5cnn(CCCO)c5)n4n3)c2)CC1` [Example 976, 3-(4-{2-[3-(4-Methyl-piperazin-1-yl)-phenylamino]-pyrrolo[2,1-f][1,2,4]triazin-7-yl}-pyrazol-1-yl)-propan-1-ol], for which the IC50 at JAK2 (setting [1]) was under 100 nM; on ALK (setting [2]), 100 to 1000 nM.

For `CCN(c1ccccc1-c1ccc2cnc(Nc3ccc(N4CCC(N5CCOCC5)CC4)cc3OC)nn12)S(C)(=O)=O` [Example 1460, N-Ethyl-N-(2-{2-[2-methoxy-4-(4-morpholin-4-yl-piperidin-1-yl)-phenylamino]-pyrrolo[2,1-f][1,2,4]triazin-7-yl}-phenyl)-methanesulfonamide], the IC50 on JAK2 (JAK2 Kinase Inhibition) and on ALK (ALK Kinase Inhibition) was under 100 nM in each case.

With `CN(c1ccccc1-c1ccc2cnc(Nc3ccc(N4CCC(O)CC4)cc3)nn12)S(C)(=O)=O` [Example 635, N-(2-{2-[4-(4-Hydroxy-piperidin-1-yl)-phenylamino]pyrrolo[2,1-f][1,2,4]triazin-7-yl}phenyl)-N-methylmethanesulfonamide], the IC50 was under 100 nM at JAK2 (setting [1]) and 100 to 1000 nM on ALK (setting [2]).

On to `COc1ccccc1-c1ccc2cnc(Nc3ccc(Cl)c(OCC4CCCN4C)c3)nn12` (stereo not drawn) [Example 1011, [4-Chloro-3-(1-methyl-pyrrolidin-2-ylmethoxy)-phenyl]-[7-(2-methoxy-phenyl)-pyrrolo[2,1-f][1,2,4]triazin-2-yl]-amine], for which the IC50 is under 100 nM on JAK2 (setting [1]) and 100 to 1000 nM at ALK (setting [2]).

On to `COc1cc(C2CCN(CC(N)=O)CC2)ccc1Nc1ncc2ccc(-c3cccc4c3OCC4)n2n1` [Example 703, 2-(4-{4-[7-(2,3-Dihydro-benzofuran-7-yl)-pyrrolo[2,1-f][1,2,4]triazin-2-ylamino]-3-methoxy-phenyl}-piperidin-1-yl)-acetamide], for which the IC50 on JAK2 (setting [1]) was 100 to 1000 nM; at ALK (setting [2]), under 100 nM.

The values are drawn from patent US8471005B2 (Cephalon, Inc., priority 2008, dated 2013).
